In US9624211B2, “Anti-cancer compounds” (Board of Regents, The University of Texas System, priority 2013, dated 2017):

What was measured:
[1] = biological target: T1, Skp1/Skp2 binding interaction (Homo sapiens, UniProt Q13309); assay: In vitro Skp2-Skp1 binding assay (GST pull-down); details: amount of intact Skp1/Skp2 remaining after treatment, quantified on western blot/images
T1 construct: made in house; host or cells: GST-Skp1: E. coli BL21; Skp2: in vitro translation
Protocol: For in vitro GST-Skp1 and Skp2 interaction, GST-Skp1 proteins purified from the bacterial lysates of BL21 competent cells transformed with pGEX-4X1-Skp1 using the Glutathione-Agarose beads according to the manufacturer's standard procedures. The GST-Skp1 proteins bound to glutathione Sepharose beads (Amersham Biosciences) were then incubated with the in vitro translated [35^S]-Skp2 for 2 hours at 4° C. in the interaction buffer with or without compound #25 (20 mM HEPES, PH 7.9, 150 mM KCl. 5 mM EDTA, 0.5 mM DTT, 0.1% (v/v) Nonidet p-40, 0.1% (w/v) BSA, 1 mM PMSF, and 10% Glycerol), washed by the NETN buffer (20 mM Tris, pH 8.0, 100 mM NaCl, 6 mM MgCl2, 1 mM EDTA, 0.5% Nonidet P-40, 1 mM DTT, 8% glycerol, 1 mM PMSF) 4 times, and subjected to 8% SDS-PAGE, followed by autoradiography.
Below are the original lead compound and 11 similar compounds that were tested for their ability to block the Skp1/Skp2 binding interaction in an in vitro assay. The quantification was made on western blot/images, and the percentages represent the amount of intact Skp1/Skp2 remaining after treatment. In vitro binding assays were performed. For in vitro GST-Skp1 and Skp2 interaction, GST-Skp1 proteins purified from the bacterial lysates of BL21 competent cells transformed with pGEX-4X1-Skp1 using the Glutathione-Agarose beads were performed according to the manufacturer's standard procedures. The GST-Skp1 proteins bound to glutathione Sepharose beads (Amersham Biosciences) were then incubated with the in vitro translated [35^S]-Skp2 for 2 hours at 4° C. in the interaction buffer with or without lead compound and 11 similar compounds (20 mM HEPES, PH 7.9, 150 mM KCl. 5 mM EDTA, 0.5 mM DTT, 0.1% (v/v) Nonidet p-40, 0.1% (w/v) BSA, 1 mM PMSF, and 10% Glycerol), washed by the NETN buffer (20 mM Tris, pH 8.0, 100 mM NaCl, 6 mM MgCl2, 1 mM EDTA, 0.5% Nonidet P-40, 1 mM DTT, 8% glycerol, 1 mM PMSF) 4 times, and subjected to 8% SDS-PAGE, followed by autoradiography. The data presented in Table 1 below was obtained using the Skp1/Skp2 binding affinity assay. The quantification percentage results listed below are based on the western blot results.

[2] = biological target: T2, FBW7 (Homo sapiens, UniProt Q969H0); assay: In vivo ubiquitination assay, FBW7 substrates; assay type: cell-based; details: in the presence of proteasome inhibitor
T2 construct: expressed in transfected cells; host or cells: 293T
Protocol: In vivo and in vitro ubiquitination assays were performed as described with modification (Lin et al., 2009; Yang et al., 2009). For in vitro ubiquitination assay, recombinant GST-Akt proteins were expressed, purified and eluted from the bacterial lysates of BL21 competent cells. Flag-Skp2 SCF complex were expressed in 293T cells, immunoprecipitated by anti-Flag antibody, and eluted from Protein A/G beads using Flag peptides according to manufacturers' standard procedures. Purified GST-Akt and Flag-SCF proteins were incubated for 3 h at 37° C. in the absence and presence of Skp2 inhibitor. After incubation, protein mixtures were diluted in E1A Buffer and the supernatant fluid was precleared with Protein A/G beads for 1 h, and immunoprecipitated overnight with anti-Flag antibody, after which Protein A/G beads were added for an additional 1 h. Beads were washed 4 times with E1A Buffer. Proteins were eluted in SDS-sample buffer and subjected to immunoblotting analysis. For in vivo ubiquitination assay, 293T cells were transfected with the indicated plasmids and cultured in the absence or presence of Skp2 inhibitor for 48 h. 6 h before harvest, cells were cultured in the presence of MG132. After cell harvest, cells were lysed by the denatured buffer (6M guanidine-HCl, 0.1M Na2HPO4/NaH2PO4, 10 mM imidazole). […]

[3] = test system: p27 and p21 protein expression; assay: Immunoblotting of SCF substrates in prostate cancer cells; assay type: cell-based
Description: Cells were lysed with RIPA buffer in the presence of protease inhibitor cocktail (Roche). The following antibodies were used for immunoblotting analysis: anti-Skp2 (Invitrogen), anti-Xpress (Invitrogen), anti-p27 (BD transduction laboratories), anti-p21 (Santa Cruz), anti-β-actin (Sigma), anti-α-tubulin (Sigma), anti-phospho-Akt (Thr308) (Cell Signaling), anti-phospho-Akt (Ser473) (Cell Signaling), and anti-HA (Convance). For immunohistochemistry, tissues were fixed in 10% formalin and embedded in paraffin in accordance with standard procedures. Sections were stained with anti-Skp2 (Invitrogen), anti-p27 (Epitomics), anti-phosphoAkt (SerS473) (Cell signaling), anti-Glut1 (Abcam), and anti-Ki67 (Abcam). TUNEL staining was performed by using in situ cell death detection kit-POD (Roche).

T1 sequence (Q13309 whole entry): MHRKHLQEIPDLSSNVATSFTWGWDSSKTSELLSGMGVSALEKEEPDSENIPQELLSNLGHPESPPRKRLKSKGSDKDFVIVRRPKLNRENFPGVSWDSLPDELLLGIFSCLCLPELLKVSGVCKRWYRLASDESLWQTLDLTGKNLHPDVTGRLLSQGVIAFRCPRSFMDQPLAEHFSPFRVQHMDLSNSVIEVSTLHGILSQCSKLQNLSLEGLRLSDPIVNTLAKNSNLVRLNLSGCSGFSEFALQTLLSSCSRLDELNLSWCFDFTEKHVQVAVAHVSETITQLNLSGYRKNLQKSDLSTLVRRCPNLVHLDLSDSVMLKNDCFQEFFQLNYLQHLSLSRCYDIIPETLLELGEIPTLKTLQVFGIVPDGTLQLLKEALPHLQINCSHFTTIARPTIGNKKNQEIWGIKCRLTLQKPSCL
T2 sequence (Q969H0 whole entry, species assumed): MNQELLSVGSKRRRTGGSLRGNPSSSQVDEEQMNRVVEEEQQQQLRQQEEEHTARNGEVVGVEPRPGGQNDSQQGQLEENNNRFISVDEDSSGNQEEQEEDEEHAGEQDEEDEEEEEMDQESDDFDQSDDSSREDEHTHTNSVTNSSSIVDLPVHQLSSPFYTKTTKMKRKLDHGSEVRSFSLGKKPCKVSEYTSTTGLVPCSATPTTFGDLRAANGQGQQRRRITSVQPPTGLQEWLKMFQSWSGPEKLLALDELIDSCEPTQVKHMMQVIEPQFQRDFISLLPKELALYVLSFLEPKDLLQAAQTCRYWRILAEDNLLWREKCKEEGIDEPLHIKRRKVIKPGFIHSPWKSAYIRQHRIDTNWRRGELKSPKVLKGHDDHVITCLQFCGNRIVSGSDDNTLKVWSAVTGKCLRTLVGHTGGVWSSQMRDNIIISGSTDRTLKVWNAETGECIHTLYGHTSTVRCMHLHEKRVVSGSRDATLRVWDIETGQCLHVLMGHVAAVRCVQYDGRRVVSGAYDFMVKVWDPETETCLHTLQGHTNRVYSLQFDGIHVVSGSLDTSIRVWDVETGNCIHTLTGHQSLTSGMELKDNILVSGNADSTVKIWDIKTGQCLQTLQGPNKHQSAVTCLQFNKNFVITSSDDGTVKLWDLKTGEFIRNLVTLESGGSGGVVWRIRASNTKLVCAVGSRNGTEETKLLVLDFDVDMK

## O=c1c(-c2nc3ccccc3s2)coc2cc(O)ccc12 [compound 684]
[1]
  Normalized w/ vehicle treatment: 75%

## O=c1oc2c(CN(CCO)CCO)c(O)ccc2cc1-c1nc2ccccc2s1 [compound 719]
[1]
  Normalized w/ vehicle treatment: 80%

## CCc1cc2c(=O)c(-c3nc4ccccc4s3)coc2cc1O [compound 378]
[1]
  Normalized w/ vehicle treatment: 100% (no effect)

## Cn1c(-c2cc3ccc(O)c(CN4CCCCC4)c3oc2=O)nc2ccccc21 [compound 435]
[1]
  Normalized w/ vehicle treatment: 40%

## COc1ccccc1C(=O)Oc1ccc2c(=O)c(-c3nc4ccccc4s3)coc2c1 [compound 837]
[1]
  Normalized w/ vehicle treatment: 8%

## CCc1cc2c(=O)c(-c3nc4ccccc4s3)coc2c(CN2CCOCC2)c1O [compound 354]
[1]
  Normalized w/ vehicle treatment: 10%

## Cn1c(-c2cc3ccc(O)c(CN4CCCCCC4)c3oc2=O)nc2ccccc21 [compound 580]
[1]
  Normalized w/ vehicle treatment: 8%

## Cn1c(-c2cc3ccc(O)c(CN4CCCC4)c3oc2=O)nc2ccccc21 [compound 343]
[1]
  Normalized w/ vehicle treatment: 35%

## CN(C)Cc1c(O)ccc2cc(-c3nc4ccccc4o3)c(=O)oc12 [compound 820]
[1]
  Normalized w/ vehicle treatment: 10%

## NS(=O)(=O)OC[C@@H]1C[C@@H](n2ccc3c(N[C@H]4CCc5ccccc54)ncnc32)C[C@@H]1O [MLN4924, reference compound]
[2]
  FBW7-mediated ubiquitination (c-Jun, MCL-1): profoundly attenuated
[3]; LNCaP prostate cancer cells
  heat shock protein 27 (Hsp27) expression: induced expression
[3]; Skp2, Fbw7 and β-TrCP substrates, FIGS. 3E and 11A
  stabilization/induction of SCF substrates: globally induced

## Nc1oc2cc(O)ccc2c(=O)c1-c1nc2ccccc2s1 [compound 649]
[1]
  Normalized w/ vehicle treatment: 8%

## CCc1cc2c(=O)c(-c3nc4ccccc4s3)coc2c(CN(C)C)c1O [compound 653]
[1]
  Normalized w/ vehicle treatment: 8%
